This passage reports Ki results from BindingDB's records for doi:10.1016/j.bmcl.2006.05.060 (University of Kentucky, 2006).

pKi: −log10 of the molar value.

Test [1] in a line: Displacement of radiolabeled NalBzOH from kappa3 opioid receptor in Hartley guinea pig brain.
Test [2] can be described thus: Displacement of radiolabeled DPDPE-Cl from delta opioid receptor in Hartley guinea pig brain.

Broadly, the pKi is the Ki on a negative log10 scale, so that one unit is a factor of ten. Lower therefore signals a high Ki. Take `C=CCN1CCC23c4c5ccc(O)c4O[C@@H]2C(=NNC(=O)c2ccccc2)CCC3(O)C1C5` (stereo not given in full): the pKi in test [1] was 9.52.
As for `CSCC[C@H](NC(=O)[C@H](Cc1ccccc1)NC(=O)CNC(=O)CNC(=O)[C@@H](N)Cc1ccc(O)cc1)C(=O)O` [2-[(S)-2-(2-{2-[(S)-2-Amino-3-(4-hydroxy-phenyl)-propionylamino]-acetylamino}-acetylamino)-1-oxo-3-phenyl-propylamino]-4-methylsulfanyl-butyric acid], the pKi in test [1] is 6.56.
The same measure, in the same setting: the value for `CC1(C)SSC(C)(C)[C@@H](NC(=O)[C@@H](N)Cc2ccc(O)cc2)C(=O)NCC(=O)N[C@@H](Cc2ccc(Cl)cc2)C(=O)N[C@H]1C(=O)O` [(4S,7S,13S)-13-[(S)-2-Amino-3-(4-hydroxy-phenyl)-propionylamino]-7-(4-chloro-benzyl)-3,3,14,14-tetramethyl-6,9,12-trioxo-1,2-dithia-5,8,11-triaza-cyclotetradecane-4-carboxylic acid] was 5.99.
Turning to `COc1ccc2c3c1O[C@H]1[C@@H](OS(=O)(=O)O)C=C[C@H]4[C@@H](C2)N(C)CC[C@@]341` [C6S], the negative-log Ki (pKi) was 6.38 in test [2] and 6.34 in test [1].
Turning to `COc1ccc2c3c1O[C@H]1[C@@H](OS(=O)(=O)O)CC[C@H]4[C@@H](C2)N(C)CC[C@@]341` [DC6S], the pKi was 5.94 in test [2] and 6.12 in test [1].
The compound `CC(=O)Oc1ccc2c3c1O[C@H]1[C@@H](OS(=O)(=O)O)CC[C@H]4[C@@H](C2)N(C)CC[C@@]341` [DM3A6S] had a pKi in test [2] of 6.49.
As for `CN1CC[C@]23c4c5ccc(OC(=O)c6ccccc6)c4O[C@H]2[C@@H](OS(=O)(=O)O)CC[C@H]3[C@H]1C5` [DM3B6S], the pKi in test [2] is 5.80.
Turning to `CN1CC[C@]23c4c5ccc(O)c4O[C@H]2[C@@H](OS(=O)(=O)O)CC[C@H]3[C@H]1C5` [DM6S], the pKi in test [2] was 7.72; in test [1], 8.15.
In the same order, the values of `CC(=O)Oc1ccc2c3c1O[C@H]1[C@@H](OS(=O)(=O)O)C=C[C@H]4[C@@H](C2)N(C)CC[C@@]341` [M3A6S] are 6.81 and 8.26.
The matching figures for `CN1CC[C@]23c4c5ccc(OC(=O)c6ccccc6)c4O[C@H]2[C@@H](OS(=O)(=O)O)C=C[C@H]3[C@H]1C5` [M3B6S]: 6.22 and 6.29.
On to `CC(C)C(=O)Oc1ccc2c3c1O[C@H]1[C@@H](OS(=O)(=O)O)C=C[C@H]4[C@@H](C2)N(C)CC[C@@]341` [M3IBu6S], for which the pKi in test [2] was 6.23; in test [1], 6.58.
In the same order, the values of `CN1CC[C@]23c4c5ccc(OC(=O)C(C)(C)C)c4O[C@H]2[C@@H](OS(=O)(=O)O)C=C[C@H]3[C@H]1C5` [M3P6S] are 7.82 and 7.96.
As to `CCC(=O)Oc1ccc2c3c1O[C@H]1[C@@H](OS(=O)(=O)O)C=C[C@H]4[C@@H](C2)N(C)CC[C@@]341` [M3Pr6S], the pKi was 7.40 in test [2] and 7.70 in test [1].
In the same order, the values of `CN1CC[C@]23c4c5ccc(OS(=O)(=O)O)c4O[C@H]2[C@@H](O)C=C[C@H]3[C@H]1C5` [M3S] are below 5.00 and 5.77.
The matching figures for `CN1CC[C@]23c4c5ccc(O)c4O[C@H]2[C@@H](OS(=O)(=O)O)C=C[C@H]3[C@H]1C5` [M6S]: 7.74 and 8.20.
In the same order, the values of `CC(=O)Oc1ccc2c3c1O[C@H]1[C@@H](OS(=O)(=O)[O-])C=C[C@H]4[C@@H](C2)[N+](C)(C)CC[C@@]341` [MM3A6S] are 6.07 and 6.40.
With `C[N+]1(C)CC[C@]23c4c5ccc(OC(=O)c6ccccc6)c4O[C@H]2[C@@H](OS(=O)(=O)[O-])C=C[C@H]3[C@H]1C5` [MM3B6S], the pKi in test [2] and in test [1] was below 5.00 in each case.
For `C[C@@H](NC(=O)[C@@H](N)Cc1ccc(O)cc1)C(=O)NCC(=O)N(C)[C@@H](Cc1ccccc1)C(=O)NCCO` [[tyrosyl-3,5-3H(N)]-D-Ala2-Mephe4-glyol5-enkephalin], in test [1], the pKi was 7.57.
